Experimental data: ChEMBL document CHEMBL3885861, “Open TG-GATES”

Species: Rattus norvegicus
Experiment: Open TG-GATES - Regimen: Single
Type: toxicity, organism-based, Sprague-Dawley
Set-up: regimen Single, gender Male, age 6 weeks
Settings: in vivo, po, route gavage; for APTT / Bas / Eos / Fbg / Hb / Ht / Lym / MCH / MCHC / MCV / Mono / Neu / PT / Plat / RBC / Ret / WBC: tissue Blood; for KIDNEY_L / KIDNEY_R / KIDNEY_TOTAL: tissue Kidney; for ALP / AST / CRE / Cl / DBIL / GLC / IP / K / LDH / Na / PL / RALB / TBIL / TC / TG / TP / gamma-GTP / ALT: tissue Plasma
[1] = 0 mg/kg, 3 h, dose level Control
[2] = 0 mg/kg, 6 h, dose level Control
[3] = 0 mg/kg, 9 h, dose level Control
[4] = 0 mg/kg, 24 h, dose level Control

With `COc1cc2c(c(OC)c1OC)-c1ccc(OC)c(=O)cc1[C@@H](NC(C)=O)CC2` [COLCHICINE] as the compound, how does the TERMINAL_BW [1] read?
The TERMINAL_BW was 221.7 g.

And the APTT [1]?
The APTT was 16.2 s.

And the Bas [1]?
The Bas was 0%.

What about the Eos [1] of the same compound?
The Eos was 0.8%.

What about the Fbg [1] of the same compound?
Its Fbg is 209.4 mg/dL.

What about the Hb [1] of the same compound?
Its Hb is 13.1 g/dL.

And the Ht [1]?
The Ht was 39.6%.

And the Lym [1]?
Its Lym is 81.8%.

What about the MCH [1] of the same compound?
The MCH was 21.6 pg.

And the MCHC [1]?
Its MCHC is 33.1%.

And the MCV [1]?
Its MCV is 65.2 fL.

And the Mono [1]?
Its Mono is 7%.

And the Neu [1]?
The Neu was 10.4%.

What about the PT [1] of the same compound?
The PT was 11.8 s.

And the Plat [1]?
The Plat was 118.4 x10_4/uL.

What about the RBC [1] of the same compound?
The RBC was 608.4 x10_4/ul.

What about the Ret [1] of the same compound?
The Ret was 10.3%.

And the WBC [1]?
Its WBC is 89.6 x10_2/uL.

What about the KIDNEY_L [1] of the same compound?
The KIDNEY_L was 1 g.

And the KIDNEY_R [1]?
The KIDNEY_R was 1.1 g.

What about the KIDNEY_TOTAL [1] of the same compound?
The KIDNEY_TOTAL was 2 g.

What about the ALP [1] of the same compound?
Its ALP is 835.6 IU/L.

And the AST [1]?
The AST was 65.6 IU/L.

What about the CRE [1] of the same compound?
The CRE was 0.4 mg/dL.

And the Cl [1]?
Its Cl is 103.4 meq/L.

And the DBIL [1]?
The DBIL was 0.038 mg/dL.

What about the GLC [1] of the same compound?
Its GLC is 208.6 mg/dL.

And the IP [1]?
The IP was 9.3 mg/dL.

And the K [1]?
The K was 4.5 meq/L.

What about the LDH [1] of the same compound?
Its LDH is 88.4 IU/L.

What about the Na [1] of the same compound?
Its Na is 140.2 meq/L.

And the PL [1]?
The PL was 139.2 mg/dL.

And the RALB [1]?
Its RALB is 3.6 g/dL.

What about the TBIL [1] of the same compound?
The TBIL was 0.3 mg/dL.

And the TC [1]?
Its TC is 78.4 mg/dL.

And the TG [1]?
Its TG is 61 mg/dL.

And the TP [1]?
Its TP is 5.4 g/dL.

And the gamma-GTP [1]?
The gamma-GTP was 1.4 IU/L.

And the TERMINAL_BW [2]?
The TERMINAL_BW was 218.4 g.

And the APTT [2]?
The APTT was 16.3 s.

And the Bas [2]?
The Bas was 0%.

And the Eos [2]?
Its Eos is 0.8%.

And the Fbg [2]?
Its Fbg is 222.4 mg/dL.

And the Hb [2]?
The Hb was 13.1 g/dL.

What about the Ht [2] of the same compound?
The Ht was 39.9%.

And the Lym [2]?
Its Lym is 82.2%.

And the MCH [2]?
Its MCH is 21.6 pg.

What about the MCHC [2] of the same compound?
Its MCHC is 33%.

And the MCV [2]?
The MCV was 65.4 fL.

What about the Mono [2] of the same compound?
The Mono was 6.6%.

And the Neu [2]?
The Neu was 10.4%.

And the PT [2]?
The PT was 12 s.

What about the Plat [2] of the same compound?
The Plat was 110.7 x10_4/uL.

What about the RBC [2] of the same compound?
The RBC was 609.8 x10_4/ul.

What about the Ret [2] of the same compound?
Its Ret is 9.6%.

And the WBC [2]?
The WBC was 104.3 x10_2/uL.

What about the KIDNEY_L [2] of the same compound?
The KIDNEY_L was 1 g.

And the KIDNEY_R [2]?
The KIDNEY_R was 1 g.

And the KIDNEY_TOTAL [2]?
Its KIDNEY_TOTAL is 2 g.

What about the ALP [2] of the same compound?
The ALP was 745.2 IU/L.

What about the ALT [2] of the same compound?
The ALT was 27.6 IU/L.

What about the AST [2] of the same compound?
Its AST is 59 IU/L.

What about the CRE [2] of the same compound?
The CRE was 0.5 mg/dL.

And the Cl [2]?
Its Cl is 104 meq/L.

And the DBIL [2]?
The DBIL was 0.036 mg/dL.

What about the GLC [2] of the same compound?
Its GLC is 188.2 mg/dL.

And the IP [2]?
The IP was 10.1 mg/dL.

And the K [2]?
The K was 4.6 meq/L.

What about the LDH [2] of the same compound?
Its LDH is 77.2 IU/L.

What about the Na [2] of the same compound?
The Na was 139 meq/L.

What about the PL [2] of the same compound?
Its PL is 135.2 mg/dL.

What about the RALB [2] of the same compound?
Its RALB is 3.7 g/dL.

And the TBIL [2]?
Its TBIL is 0.4 mg/dL.

And the TC [2]?
The TC was 73.2 mg/dL.

And the TG [2]?
Its TG is 48.4 mg/dL.

What about the TP [2] of the same compound?
The TP was 5.5 g/dL.

What about the gamma-GTP [2] of the same compound?
Its gamma-GTP is 1.6 IU/L.

What about the TERMINAL_BW [3] of the same compound?
Its TERMINAL_BW is 218.9 g.

And the APTT [3]?
The APTT was 16.3 s.

And the Bas [3]?
Its Bas is 0%.

And the Eos [3]?
Its Eos is 0.8%.

And the Fbg [3]?
The Fbg was 216.2 mg/dL.

And the Hb [3]?
The Hb was 12.8 g/dL.

And the Ht [3]?
The Ht was 38.9%.

What about the Lym [3] of the same compound?
Its Lym is 85.4%.

And the MCH [3]?
The MCH was 21.6 pg.

And the MCHC [3]?
The MCHC was 33%.

And the MCV [3]?
Its MCV is 65.8 fL.

And the Mono [3]?
Its Mono is 5.4%.

And the Neu [3]?
The Neu was 8.4%.

What about the PT [3] of the same compound?
Its PT is 12.1 s.

And the Plat [3]?
Its Plat is 111 x10_4/uL.

And the RBC [3]?
The RBC was 591.6 x10_4/ul.

And the Ret [3]?
Its Ret is 9.4%.

What about the WBC [3] of the same compound?
Its WBC is 88.7 x10_2/uL.

What about the KIDNEY_L [3] of the same compound?
Its KIDNEY_L is 1 g.

And the KIDNEY_R [3]?
Its KIDNEY_R is 1.1 g.

And the KIDNEY_TOTAL [3]?
Its KIDNEY_TOTAL is 2.1 g.

What about the ALP [3] of the same compound?
Its ALP is 948.4 IU/L.

And the ALT [3]?
Its ALT is 28.8 IU/L.

And the AST [3]?
Its AST is 64.4 IU/L.

And the CRE [3]?
Its CRE is 0.5 mg/dL.

And the Cl [3]?
The Cl was 105.2 meq/L.

What about the DBIL [3] of the same compound?
The DBIL was 0.044 mg/dL.

And the GLC [3]?
Its GLC is 199.8 mg/dL.

What about the IP [3] of the same compound?
Its IP is 9.9 mg/dL.

What about the K [3] of the same compound?
Its K is 4.9 meq/L.

What about the LDH [3] of the same compound?
Its LDH is 71.2 IU/L.

And the Na [3]?
Its Na is 137.6 meq/L.

What about the PL [3] of the same compound?
The PL was 134.4 mg/dL.

And the RALB [3]?
Its RALB is 3.8 g/dL.

What about the TBIL [3] of the same compound?
The TBIL was 0.4 mg/dL.

And the TC [3]?
The TC was 77.6 mg/dL.

What about the TG [3] of the same compound?
Its TG is 40 mg/dL.

What about the TP [3] of the same compound?
The TP was 5.4 g/dL.

And the gamma-GTP [3]?
The gamma-GTP was 1.6 IU/L.

And the TERMINAL_BW [4]?
The TERMINAL_BW was 232.9 g.

What about the APTT [4] of the same compound?
The APTT was 16.4 s.

What about the Bas [4] of the same compound?
The Bas was 0%.

What about the Eos [4] of the same compound?
The Eos was 1.2%.

What about the Fbg [4] of the same compound?
The Fbg was 215.8 mg/dL.

And the Hb [4]?
The Hb was 12.8 g/dL.

And the Ht [4]?
The Ht was 38.6%.

And the Lym [4]?
Its Lym is 77.2%.

What about the MCH [4] of the same compound?
The MCH was 21.7 pg.

What about the MCHC [4] of the same compound?
Its MCHC is 33.1%.

What about the MCV [4] of the same compound?
Its MCV is 65.5 fL.

What about the Mono [4] of the same compound?
Its Mono is 7.2%.

What about the Neu [4] of the same compound?
Its Neu is 14.6%.

And the PT [4]?
The PT was 11.2 s.

What about the Plat [4] of the same compound?
The Plat was 118.5 x10_4/uL.

And the RBC [4]?
The RBC was 588.4 x10_4/ul.

What about the Ret [4] of the same compound?
Its Ret is 10.2%.

And the WBC [4]?
The WBC was 102.4 x10_2/uL.

What about the KIDNEY_L [4] of the same compound?
The KIDNEY_L was 1.1 g.

And the KIDNEY_R [4]?
The KIDNEY_R was 1.1 g.

What about the KIDNEY_TOTAL [4] of the same compound?
Its KIDNEY_TOTAL is 2.2 g.

What about the ALP [4] of the same compound?
The ALP was 858 IU/L.

What about the AST [4] of the same compound?
Its AST is 61.2 IU/L.

What about the CRE [4] of the same compound?
The CRE was 0.5 mg/dL.

What about the Cl [4] of the same compound?
Its Cl is 102.8 meq/L.

What about the DBIL [4] of the same compound?
The DBIL was 0.022 mg/dL.

And the GLC [4]?
Its GLC is 203 mg/dL.

And the IP [4]?
The IP was 7.7 mg/dL.

What about the K [4] of the same compound?
The K was 4.9 meq/L.

And the LDH [4]?
The LDH was 86.2 IU/L.

And the Na [4]?
The Na was 137.6 meq/L.

What about the PL [4] of the same compound?
Its PL is 156.8 mg/dL.

And the RALB [4]?
The RALB was 3.8 g/dL.

What about the TBIL [4] of the same compound?
Its TBIL is 0.4 mg/dL.

And the TC [4]?
The TC was 84.8 mg/dL.

And the TG [4]?
The TG was 122.8 mg/dL.

And the TP [4]?
The TP was 5.7 g/dL.

What about the gamma-GTP [4] of the same compound?
Its gamma-GTP is 1 IU/L.

And the TERMINAL_BW (2 mg/kg, 3 h, dose level Low)?
The TERMINAL_BW was 218.7 g.
